Source: patent US20030129664A1, “Novel Assays” (priority 1999, published 2003)

Experiments:
parental HEK-293 cells = test: FLIPR calcium assay in control cells (non-transfected HEK-293, other receptors or Gαqi5 alone); format: cell-based; conditions: cells transfected with other receptors or Gαqi5 alone
Experimental: A functional assay was performed with FLIPR using the fluorescent calcium indicator dye Fluo-3 (Molecular Probes) on a 96 well platform. HEK-293 cells, either expressing the receptor with the chimeric G protein (Gαqi5) or wild type cells were loaded with Fluo-3 as follows. Stable HEK-293 clones expressing RP-23 receptor with Gαqi5and/or cells expressing RP-23R alone, or parental cells were plated at a density of 70,000 cells/well in a 96 well plate. On the day of the experiment, the RP-23 receptor expressing cells were loaded with fluorescent solution (Dulbecco's modified medium with 10% fetal bovine serum containing 4 μM Fluo-3 and […] pluronic acid). The cells were incubated at 37° C. for one hour in a humidified chamber. Following the incubation, cells were Washed five times in Hanks' with 20 mM Hepes and 0.1% BSA (pH 7.4). The cells were analyzed using the FLIPR system to measure the mobilization of intracellular calcium in response to different compounds.
HEK-293 cells that endogenously express some GPCRs such as PACAP receptors can be used as an internal control for assays. Background signal was established with all of the compounds in the parental HEK-293 cells (non-transfected) or parental HEK-293 cells transfected with Gαqi5 chimeric protein using the FLIPR assay. […]

RP-23 receptor = target: T1, RP-23 receptor (Mus musculus, UniProt P30731); test: FLIPR functional assay of intracellular calcium mobilization (Fluo-3) in HEK-293 cells expressing RP-23 receptor with Gαqi5; format: cell-based
T1 construct: expressed in transfected cells; G418 and hygromycin selection
T1 sequence (P30731 18-423): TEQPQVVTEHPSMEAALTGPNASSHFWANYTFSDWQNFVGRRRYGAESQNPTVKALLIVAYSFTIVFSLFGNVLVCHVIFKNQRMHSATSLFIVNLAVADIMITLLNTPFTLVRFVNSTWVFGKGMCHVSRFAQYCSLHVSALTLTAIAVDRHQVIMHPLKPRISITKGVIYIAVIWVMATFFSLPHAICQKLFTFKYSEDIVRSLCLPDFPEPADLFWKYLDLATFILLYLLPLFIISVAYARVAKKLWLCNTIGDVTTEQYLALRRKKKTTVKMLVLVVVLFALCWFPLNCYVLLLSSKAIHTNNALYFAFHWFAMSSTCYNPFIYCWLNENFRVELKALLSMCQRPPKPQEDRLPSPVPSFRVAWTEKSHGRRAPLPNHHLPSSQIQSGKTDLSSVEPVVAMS
Experimental: The RP-23 gene (Harrigan et al., Molecular Endocrinol. 5:1331-1338 (1991)) was obtained and used to generate a mammalian expression vector. Specifically, 40 μg of RP-23 receptor DNA was digested with 100 units of EcoRI enzyme (Pharmacia) (Lambda ZAP II) at 37 degrees C., isolated on a 1% agarose gel and subcloned into the Eco RI site of pcDNA 3.0 (InVitrogen, San Diego, Calif.). The expression vector so produced was called pcDNA 3.0-RP-23. Plasmid DNA was prepared using the Qiaprep system from Qiagen.
HEK-293 cells were transfected with pcDNA 3.0-RP-23 using the calcium-phosphate method and subsequently transfected with DNA encoding a chimeric G protein (Gαqi5). This is Gq alpha with the C-terminal amino acids changed from EYNLV to DCGLF. The entire protein was subcloned in an expression vector (pCEP, Molecular Devices). […] The presence of mRNA specific for clone RP-23 was assessed by Northern Blot Analysis and by the reverse transcriptase polymerase chain reaction (RT-PCR). […]
A functional assay was performed with FLIPR using the fluorescent calcium indicator dye Fluo-3 (Molecular Probes) on a 96 well platform. […] The cells were analyzed using the FLIPR system to measure the mobilization of intracellular calcium in response to different compounds.

dose-response relationship of calcium response (RP-23 receptor; cells transfected with RP-23 and Gαqi5): dose-response relationship
Structure (SMILES): CCCCCCCCCCCCC/C=C/[C@@H](O)[C@@H](N)COP(=O)(O)O [sphingosine-1-PO4]
dose-response relationship of calcium response in control cells (parental HEK-293 cells): not in non-transfected cells or in cells transfected with other receptors or Gαqi5 alone
calcium response (FLIPR signal) compared to control cells (RP-23 receptor; HEK-293 cells expressing RP-23 receptor and Gαqi5 chimeric protein, compounds dissolved at 3 μM, compared with parental HEK-293 and HEK-293 transfected with Gαqi5): consistently elicited a significant signal
